Test [1] concerns Rattus norvegicus. As to the kind of experiment: Antiestrogenic activity in Rattus norvegicus Sprague-Dawley (rat) assessed as inhibition of ethynylestradiol-induced uterine weight at 3 mg/kg, po qd administered 3 days measured on day 31 relative to control. The settings on record: for inhibition in vivo at 3 mg/kg: Rattus norvegicus, Sprague-Dawley, po. The class given is functional.

The test system of test [2] is Rattus norvegicus. The experiment in a line: Estrogenic activity in Rattus norvegicus (rat) assessed as increase in uterine weight at 3 mg/kg, sc qd after 3 days relative to control. The format is functional. Particulars: route subcutaneous; for uterine weight increase relative to control: 3 mg/kg; for uterine weight increase relative to control at 3 mg/kg: Rattus norvegicus, sc, 72 h, read-out: INH.

Test [3] concerns the target T1, Estrogen receptor (Rattus norvegicus) (UniProt P06211).
T1 sequence (whole entry): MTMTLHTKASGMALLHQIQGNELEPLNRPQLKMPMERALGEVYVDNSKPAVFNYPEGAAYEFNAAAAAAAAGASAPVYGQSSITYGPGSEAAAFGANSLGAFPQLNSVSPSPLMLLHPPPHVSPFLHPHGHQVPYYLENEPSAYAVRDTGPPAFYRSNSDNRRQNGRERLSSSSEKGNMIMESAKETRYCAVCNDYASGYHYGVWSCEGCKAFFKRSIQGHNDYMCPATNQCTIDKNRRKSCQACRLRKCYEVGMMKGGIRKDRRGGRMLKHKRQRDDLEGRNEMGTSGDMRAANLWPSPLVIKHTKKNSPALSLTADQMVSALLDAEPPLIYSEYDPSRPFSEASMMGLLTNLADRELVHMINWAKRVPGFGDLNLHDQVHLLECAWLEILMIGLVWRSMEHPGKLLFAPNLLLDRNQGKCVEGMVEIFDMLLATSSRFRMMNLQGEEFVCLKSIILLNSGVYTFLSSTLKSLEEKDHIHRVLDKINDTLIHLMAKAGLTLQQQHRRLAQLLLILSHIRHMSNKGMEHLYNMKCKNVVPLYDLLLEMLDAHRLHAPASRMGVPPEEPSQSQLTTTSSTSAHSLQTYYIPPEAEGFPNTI
The experiment in a line: Binding affinity to Charles Foster Rattus norvegicus (rat) uterine 17beta-estradiol receptor cytosolic form relative to estradiol.

The test system of test [4] is Rattus norvegicus. As to the kind of experiment: Antiestrogenic activity in Rattus norvegicus Sprague-Dawley (rat) assessed as inhibition of ethynylestradiol-induced uterine weight at 10 mg/kg, po qd administered 3 days measured on day 31 relative to control. The class given is functional. The settings on record: for inhibition in vivo at 10 mg/kg: Rattus norvegicus, Sprague-Dawley, po; for inhibition (INH): 10 mg/kg.

Test [5] concerns Rattus norvegicus. As to the kind of experiment: Estrogenic activity in Rattus norvegicus (rat) assessed as increase in uterine weight at 10 mg/kg, sc qd after 3 days relative to control. The format is functional. The settings on record: route subcutaneous.

These results are taken from ChEMBL document CHEMBL3045972, “Effect of side-chain alteration on hormonal activity of nonsteroidal estrogen antagonists” (2010).

In the case of `COc1ccc2c(c1)OC(C)(C)[C@@H](c1ccccc1)[C@@H]2c1ccc(O)cc1` (relative stereo; 1c) [listing 1 of 2 here], the “inhibition (INH)” value in the test on Rattus norvegicus [1] (3 mg/kg) is on record as 46.11%. In the test with Rattus norvegicus [2], the “uterine weight increase relative to control” value is reported as 165%.
Usually inhibition in vivo stands for the drop in the measured response relative to a control, in per cent. Consider `COc1ccc2c(c1)OC(C)(C)[C@H](c1ccccc1)[C@@H]2c1ccc(OC(C)C(=O)NN)cc1` (relative stereo), for which the Activity in test [3] is 0.011%; in the test on Rattus norvegicus [5], 110.22%. In the test on Rattus norvegicus [4], the inhibition in vivo at 10 mg/kg came out at 1.07%.
Take `COc1ccc2c(c1)OC(C)(C)[C@@H](c1ccccc1)[C@@H]2c1ccc(OC(C)C(=O)NN)cc1` (relative stereo) [listing 1 of 2 here]: the Activity in test [3] came out at 0.052%.
`CCOC(=O)C(C)Oc1ccc([C@@H]2c3ccc(OC)cc3OC(C)(C)[C@H]2c2ccccc2)cc1` (single isomer, unassigned; (-)): the inhibition in vivo at 3 mg/kg in the test on Rattus norvegicus [1] was 40.6%. Further, the uterine weight increase relative to control at 3 mg/kg with Rattus norvegicus [2] was determined as 122%.
Take `COc1ccc2c(c1)OC(C)(C)[C@@H](c1ccccc1)[C@@H]2c1ccc(OC(C)C(=O)O)cc1` (stereo in doubt; 3c) [listing 1 of 2 here]: the “inhibition (INH)” value in the test on Rattus norvegicus [4] was 10%. Moreover, the Activity with Rattus norvegicus [5] (10 mg/kg) amounted to 149%.
Take `COc1ccc2c(c1)OC(C)(C)[C@@H](c1ccccc1)[C@@H]2c1ccc(OC(C)C(=O)O)cc1` (stereo in doubt; 3c) [listing 2 of 2 here]: the Activity in test [3] worked out at 0.037%.
Still for that read-out and setting: as for `CCOC(=O)C(C)Oc1ccc([C@@H]2c3ccc(OC)cc3OC(C)(C)[C@H]2c2ccccc2)cc1` (relative stereo) [listing 1 of 2 here], the figure is 0.029%.
Consider `COc1ccc2c(c1)OC(C)(C)[C@H](c1ccccc1)[C@@H]2c1ccc(O)cc1` (relative stereo), for which the Activity in test [3] was less than 0.001%; in the test with Rattus norvegicus [5], 33.6%.
Consider `COc1ccc2c(c1)OC(C)(C)[C@@H](c1ccccc1)[C@@H]2c1ccc(O)cc1` (relative stereo; 1b) [listing 1 of 2 here], for which, in the test with Rattus norvegicus [1], the inhibition in vivo at 3 mg/kg was found to be 60%. In addition, in the test with Rattus norvegicus [2], the “uterine weight increase relative to control” value is listed as 126.83%.
With `COc1ccc2c(c1)OC(C)(C)[C@@H](c1ccccc1)[C@@H]2c1ccc(OC(C)C(=O)NN)cc1` (relative stereo) [listing 2 of 2 here], the “inhibition (INH)” value with Rattus norvegicus [4] is reported as 12.14%. Also, the Activity in the test with Rattus norvegicus [5] (10 mg/kg) is reported as 101.91%.
`COc1ccc2c(c1)OC(C)(C)[C@@H](c1ccccc1)[C@@H]2c1ccc(O)cc1` (relative stereo; 1c) [listing 2 of 2 here] returned an Activity in test [3] of 15.7%.
Consider `CCOC(=O)C(C)Oc1ccc([C@H]2c3ccc(OC)cc3OC(C)(C)[C@@H]2c2ccccc2)cc1` (single isomer, unassigned; (+)), for which the inhibition in vivo at 10 mg/kg in the test with Rattus norvegicus [4] is 14.3%. Further, in the test on Rattus norvegicus [5], the Activity was 0.19%.
On the same counts, the results for `CCOC(=O)C(C)Oc1ccc([C@@H]2c3ccc(OC)cc3OC(C)(C)[C@H]2c2ccccc2)cc1` (relative stereo) [listing 2 of 2 here] are 3.98% and 43.7%.
Turning to `COc1ccc2c(c1)OC(C)(C)[C@H](c1ccccc1)[C@H]2c1ccc(OC(C)C(=O)NN)cc1` (single isomer, unassigned; (+)), the Activity came to 0.24% in test [3] and 6.68% in the test on Rattus norvegicus [5]. Further, the inhibition in vivo at 10 mg/kg with Rattus norvegicus [4] was determined as 6.21%.
`COc1ccc2c(c1)OC(C)(C)[C@H](c1ccccc1)[C@@H]2c1ccc(OC(C)C(=O)O)cc1` (relative stereo): in the test on Rattus norvegicus [4], the inhibition in vivo at 10 mg/kg worked out at 3.8%. Besides, in the test with Rattus norvegicus [5], the Activity worked out at 44.2%.
Molecule `COc1ccc2c(c1)OC(C)(C)[C@@H](c1ccccc1)[C@@H]2c1ccc(OC(C)C(=O)NN)cc1` (single isomer, unassigned; (-)) [listing 1 of 2 here] returned an Activity in test [3] of 0.37%.
For the molecule `COc1ccc2c(c1)OC(C)(C)[C@H](c1ccccc1)[C@H]2c1ccc(O)cc1`, the Activity in test [3] was determined as 2.1%. In addition, the inhibition in vivo at 3 mg/kg in the test with Rattus norvegicus [1] was 50%. The uterine weight increase relative to control at 3 mg/kg with Rattus norvegicus [2] is 109%.
With `COc1ccc2c(c1)OC(C)(C)[C@@H](c1ccccc1)[C@@H]2c1ccc(OC(C)C(=O)O)cc1` (relative stereo), the inhibition in vivo at 10 mg/kg in the test on Rattus norvegicus [4] was determined as 10.8%. Moreover, the Activity with Rattus norvegicus [5] (10 mg/kg) is 21.6%.
Regarding `CCOC(=O)C(C)Oc1ccc([C@@H]2c3ccc(OC)cc3OC(C)(C)[C@@H]2c2ccccc2)cc1` (relative stereo), the inhibition in vivo at 10 mg/kg in the test with Rattus norvegicus [4] amounted to 3.71%. In addition, the Activity with Rattus norvegicus [5] was found to be 71.58%.
For the molecule `COc1ccc2c(c1)OC(C)(C)[C@@H](c1ccccc1)[C@@H]2c1ccc(OC(C)C(=O)NN)cc1` (single isomer, unassigned; (-)) [listing 2 of 2 here], the “inhibition (INH)” value in the test on Rattus norvegicus [4] came out at 25.37%. In the test on Rattus norvegicus [5] (10 mg/kg), the Activity came to 155.02%.
In the case of `COc1ccc2c(c1)OC(C)(C)[C@@H](c1ccccc1)[C@@H]2c1ccc(O)cc1` (relative stereo; 1b) [listing 2 of 2 here], in test [3], the Activity came out at 5.42%.
In the case of `COc1ccc2c(c1)OC(C)(C)[C@H](c1ccccc1)[C@H]2c1ccc(OC(C)C(=O)O)cc1` (single isomer, unassigned; (+)), the inhibition in vivo at 10 mg/kg in the test with Rattus norvegicus [4] came to 16.1%. Further, the Activity with Rattus norvegicus [5] is reported as 6.88%.
